# Experimental data reported in the NIST ThermoML archive (doi:10.1016/j.fluid.2016.05.032).
# ± gives the expanded uncertainty stated by the source.
# Details: Liquid, Closed cell (Static) method
Structure (SMILES),vapor or sublimation pressure (345.15 K) [kPa],vapor or sublimation pressure (350.15 K) [kPa],vapor or sublimation pressure (355.15 K) [kPa],vapor or sublimation pressure (360.15 K) [kPa],vapor or sublimation pressure (365.15 K) [kPa],vapor or sublimation pressure (320.15 K) [kPa],other results
"Cc1ccccc1C [1,2-dimethylbenzene]",9.182 ± 0.061,11.27 ± 0.074,13.73 ± 0.081,16.62 ± 0.095,20 ± 0.11,,
"Cc1cccc(C)c1 [1,3-dimethylbenzene]",11 ± 0.058,13.44 ± 0.07,16.32 ± 0.083,19.68 ± 0.098,23.59 ± 0.1,,
"Cc1ccc(C)cc1 [1,4-dimethylbenzene]",11.39 ± 0.061,13.9 ± 0.071,16.85 ± 0.085,20.3 ± 0.095,24.3 ± 0.1,,
CC(O)COC(C)COC(C)CO (stereo not given) [2-[2-(2-hydroxypropoxy)propoxy]-1-propanol],,0.039 ± 0.006,,,,,vapor or sublimation pressure (357.15 K): 0.063 ± 0.016 kPa; vapor or sublimation pressure (364.15 K): 0.098 ± 0.009 kPa; vapor or sublimation pressure (371.15 K): 0.15 ± 0.018 kPa; vapor or sublimation pressure (378.15 K): 0.224 ± 0.009 kPa
CCc1ccccc1 [ethylbenzene],,,,,,4.076 ± 0.038,vapor or sublimation pressure (326.15 K): 5.41 ± 0.047 kPa; vapor or sublimation pressure (332.15 K): 7.093 ± 0.052 kPa; vapor or sublimation pressure (338.15 K): 9.194 ± 0.058 kPa; vapor or sublimation pressure (344.15 K): 11.79 ± 0.071 kPa
Cc1ccccc1 [toluene],,,,,,10.77 ± 0.052,vapor or sublimation pressure (315.15 K): 8.622 ± 0.044 kPa; vapor or sublimation pressure (325.15 K): 13.34 ± 0.059 kPa; vapor or sublimation pressure (330.15 K): 16.4 ± 0.071 kPa; vapor or sublimation pressure (335.15 K): 20.02 ± 0.08 kPa
